According to ChEMBL document CHEMBL3045187, “Chemical weed control in seedbed sown onion (Allium cepa L.)” (Crop Prot, 2006):

Legend:
[1] = tested on: Malva sylvestris; assay: Herbicidal activity against Malva sylvestris assessed as total dry weight at 3.75 kg/ha applied as spray before seed sowing (reference value: 4.1 MT/ha); assay type: functional
[2] = tested on: Allium cepa; assay: Phytotoxicity in Allium cepa (onion) seedling assessed as total fresh weight at 3.75 kg/ha applied as spray before seed sowing (reference value: 7.71 MT/ha); assay type: organism-based; settings: in vivo, other
[3] = tested on: Cyperus rotundus; assay: Herbicidal activity against Cyperus rotundus assessed as total fresh weight at 3.75 kg/ha applied as spray before seed sowing (reference value: 23.6 MT/ha); assay type: functional
[4] = tested on: Malva sylvestris; assay: Herbicidal activity against Malva sylvestris assessed as total fresh weight at 3.75 kg/ha applied as spray before seed sowing (reference value: 23.6 MT/ha); assay type: functional
[5] = tested on: Chenopodiastrum murale; assay: Herbicidal activity against Chenopodium murale assessed as total fresh weight at 3.75 kg/ha applied as spray before seed sowing (reference value: 23.6 MT/ha); assay type: functional
[6] = tested on: Chenopodiastrum murale; assay: Herbicidal activity against Chenopodium murale assessed as total dry weight at 3.75 kg/ha applied as spray before seed sowing (reference value: 4.1 MT/ha); assay type: functional
[7] = tested on: Cyperus rotundus; assay: Herbicidal activity against Cyperus rotundus assessed as total dry weight at 3.75 kg/ha applied as spray before seed sowing (reference value: 4.1 MT/ha); assay type: functional
[8] = tested on: Cyperus rotundus; assay: Herbicidal activity against Cyperus rotundus assessed as total fresh weight at 2.45 kg/ha applied as spray before seed sowing (reference value: 23.6 MT/ha); assay type: functional
[9] = tested on: Chenopodiastrum murale; assay: Herbicidal activity against Chenopodium murale assessed as total dry weight at 2.45 kg/ha applied as spray before seed sowing (reference value: 4.1 MT/ha); assay type: functional
[10] = tested on: Allium cepa; assay: Phytotoxicity in Allium cepa (onion) seedling assessed as total fresh weight at 2.45 kg/ha applied as spray before seed sowing (reference value: 7.71 MT/ha); assay type: organism-based; settings: in vivo, other
[11] = tested on: Malva sylvestris; assay: Herbicidal activity against Malva sylvestris assessed as total dry weight at 2.45 kg/ha applied as spray before seed sowing (reference value: 4.1 MT/ha); assay type: functional
[12] = tested on: Cyperus rotundus; assay: Herbicidal activity against Cyperus rotundus assessed as total dry weight at 2.45 kg/ha applied as spray before seed sowing (reference value: 4.1 MT/ha); assay type: functional
[13] = tested on: Malva sylvestris; assay: Herbicidal activity against Malva sylvestris assessed as total fresh weight at 2.45 kg/ha applied as spray before seed sowing (reference value: 23.6 MT/ha); assay type: functional
[14] = tested on: Chenopodiastrum murale; assay: Herbicidal activity against Chenopodium murale assessed as total fresh weight at 2.45 kg/ha applied as spray before seed sowing (reference value: 23.6 MT/ha); assay type: functional
[15] = tested on: Cyperus rotundus; assay: Herbicidal activity against Cyperus rotundus assessed as decrease in total dry weight at 0.75 kg/ha applied as spray during post-emergence relative to weed-infested control; assay type: functional; parameters: scale not given: the % may be the effect or the level left
[16] = tested on: Chenopodiastrum murale; assay: Herbicidal activity against Chenopodium murale assessed as total fresh weight at 0.75 kg/ha applied as spray before seed sowing (reference value: 23.6 MT/ha); assay type: functional
[17] = tested on: Chenopodiastrum murale; assay: Herbicidal activity against Chenopodium murale assessed as total fresh weight at 0.75 kg/ha applied as spray during postemergence (reference value: 23.6 MT/ha); assay type: functional
[18] = tested on: Malva sylvestris; assay: Herbicidal activity against Malva sylvestris assessed as decrease in total dry weight at 0.75 kg/ha applied as spray during post-emergence relative to weed-infested control; assay type: functional; parameters: scale not given: the % may be the effect or the level left
[19] = tested on: Allium cepa; assay: Phytotoxicity in Allium cepa (onion) seedling assessed as total fresh weight at 0.75 kg/ha applied as spray during post-emergence (reference value: 7.71 MT/ha); assay type: organism-based; settings: in vivo, other
[20] = tested on: Chenopodiastrum murale; assay: Herbicidal activity against Chenopodium murale assessed as total dry weight at 0.75 kg/ha applied as spray before seed sowing (reference value: 4.1 MT/ha); assay type: functional
[21] = tested on: Cyperus rotundus; assay: Herbicidal activity against Cyperus rotundus assessed as total dry weight at 0.75 kg/ha applied as spray before seed sowing (reference value: 4.1 MT/ha); assay type: functional
[22] = tested on: Malva sylvestris; assay: Herbicidal activity against Malva sylvestris assessed as total dry weight at 0.75 kg/ha applied as spray before seed sowing (reference value: 4.1 MT/ha); assay type: functional
[23] = tested on: Malva sylvestris; assay: Herbicidal activity against Malva sylvestris assessed as total fresh weight at 0.75 kg/ha applied as spray before seed sowing (reference value: 23.6 MT/ha); assay type: functional
[24] = tested on: Chenopodiastrum murale; assay: Herbicidal activity against Chenopodium murale assessed as decrease in total dry weight at 0.75 kg/ha applied as spray during postemergence relative to weed-infested control; assay type: functional; parameters: scale not given: the % may be the effect or the level left
[25] = tested on: Cyperus rotundus; assay: Herbicidal activity against Cyperus rotundus assessed as total fresh weight at 0.75 kg/ha applied as spray during post-emergence (reference value: 23.6 MT/ha); assay type: functional
[26] = tested on: Allium cepa; assay: Phytotoxicity in Allium cepa (onion) seedling assessed as total fresh weight at 0.75 kg/ha applied as spray before seed sowing (reference value: 7.71 MT/ha); assay type: organism-based; settings: in vivo, other
[27] = tested on: Malva sylvestris; assay: Herbicidal activity against Malva sylvestris assessed as total fresh weight at 0.75 kg/ha applied as spray during post-emergence (reference value: 23.6 MT/ha); assay type: functional
[28] = tested on: Cyperus rotundus; assay: Herbicidal activity against Cyperus rotundus assessed as total fresh weight at 0.75 kg/ha applied as spray before seed sowing (reference value: 23.6 MT/ha); assay type: functional
[29] = tested on: Malva sylvestris; assay: Herbicidal activity against Malva sylvestris assessed as total fresh weight at 7 kg/ha applied as spray before seed sowing (reference value: 23.6 MT/ha); assay type: functional
[30] = tested on: Malva sylvestris; assay: Herbicidal activity against Malva sylvestris assessed as total dry weight at 7 kg/ha applied as spray before seed sowing (reference value: 4.1 MT/ha); assay type: functional
[31] = tested on: Chenopodiastrum murale; assay: Herbicidal activity against Chenopodium murale assessed as total dry weight at 7 kg/ha applied as spray before seed sowing (reference value: 4.1 MT/ha); assay type: functional
[32] = tested on: Cyperus rotundus; assay: Herbicidal activity against Cyperus rotundus assessed as total fresh weight at 7 kg/ha applied as spray before seed sowing (reference value: 23.6 MT/ha); assay type: functional
[33] = tested on: Cyperus rotundus; assay: Herbicidal activity against Cyperus rotundus assessed as total dry weight at 7 kg/ha applied as spray before seed sowing (reference value: 4.1 MT/ha); assay type: functional
[34] = tested on: Allium cepa; assay: Phytotoxicity in Allium cepa (onion) seedling assessed as total fresh weight at 7 kg/ha applied as spray before seed sowing (reference value: 7.71 MT/ha); assay type: organism-based; settings: in vivo, other
[35] = tested on: Chenopodiastrum murale; assay: Herbicidal activity against Chenopodium murale assessed as total fresh weight at 7 kg/ha applied as spray before seed sowing (reference value: 23.6 MT/ha); assay type: functional
[36] = tested on: Cyperus rotundus; assay: Herbicidal activity against Cyperus rotundus assessed as total fresh weight at 0.35 kg/ha applied as spray before seed sowing (reference value: 23.6 MT/ha); assay type: functional
[37] = tested on: Cyperus rotundus; assay: Herbicidal activity against Cyperus rotundus assessed as total dry weight at 0.35 kg/ha applied as spray before seed sowing (reference value: 4.1 MT/ha); assay type: functional
[38] = tested on: Chenopodiastrum murale; assay: Herbicidal activity against Chenopodium murale assessed as total fresh weight at 0.35 kg/ha applied as spray before seed sowing (reference value: 23.6 MT/ha); assay type: functional
[39] = tested on: Malva sylvestris; assay: Herbicidal activity against Malva sylvestris assessed as total fresh weight at 0.35 kg/ha applied as spray before seed sowing (reference value: 23.6 MT/ha); assay type: functional
[40] = tested on: Allium cepa; assay: Phytotoxicity in Allium cepa (onion) seedling assessed as total fresh weight at 0.35 kg/ha applied as spray before seed sowing (reference value: 7.71 MT/ha); assay type: organism-based; settings: in vivo, other
[41] = tested on: Chenopodiastrum murale; assay: Herbicidal activity against Chenopodium murale assessed as total dry weight at 0.35 kg/ha applied as spray before seed sowing (reference value: 4.1 MT/ha); assay type: functional
[42] = tested on: Malva sylvestris; assay: Herbicidal activity against Malva sylvestris assessed as total dry weight at 0.35 kg/ha applied as spray before seed sowing (reference value: 4.1 MT/ha); assay type: functional

Which results are given for `CN(C)C(=O)C(c1ccccc1)c1ccccc1` [DIPHENAMIDE]?
Activity [1]: 4.79 MT/ha; Activity [2]: 5.16 MT/ha; Activity [3]: 21.5 MT/ha; Activity [4]: 21.5 MT/ha; Activity [5]: 21.5 MT/ha; Activity [6]: 4.79 MT/ha; Activity [7]: 4.79 MT/ha

What does the source list for `CNC(=O)N(C)c1nc2ccccc2s1` [METHABENZTHIAZURON]?
Activity [8]: 9 MT/ha; Activity [9]: 2.85 MT/ha; Activity [10]: 7.18 MT/ha; Activity [11]: 2.85 MT/ha; Activity [12]: 2.85 MT/ha; Activity [13]: 9 MT/ha; Activity [14]: 9 MT/ha

Which Activity [15] does the source give for `CC(C)Oc1cc(-n2nc(C(C)(C)C)oc2=O)c(Cl)cc1Cl` [OXADIAZON] here?
Its Activity is 57%.

And the Activity [16]?
The Activity was 13.3 MT/ha.

And the Activity [17]?
Its Activity is 10.8 MT/ha.

And the Activity [18]?
The Activity was 57%.

And the Activity [19]?
The Activity was 15.69 MT/ha.

And the Activity [20]?
The Activity was 2.37 MT/ha.

What about the Activity [21] of the same compound?
The Activity was 2.37 MT/ha.

What about the Activity [22] of the same compound?
Its Activity is 2.37 MT/ha.

What about the Activity [23] of the same compound?
Its Activity is 13.3 MT/ha.

And the Activity [24]?
The Activity was 57%.

And the Activity [25]?
The Activity was 10.8 MT/ha.

And the Activity [26]?
The Activity was 13.37 MT/ha.

What about the Activity [27] of the same compound?
Its Activity is 10.8 MT/ha.

What about the Activity [28] of the same compound?
Its Activity is 13.3 MT/ha.

With `COC(=O)c1c(Cl)c(Cl)c(C(=O)OC)c(Cl)c1Cl` [DACTHAL] as the compound, how does the Activity [29] read?
The Activity was 19 MT/ha.

What about the Activity [30] of the same compound?
The Activity was 3.63 MT/ha.

What about the Activity [31] of the same compound?
Its Activity is 3.63 MT/ha.

What about the Activity [32] of the same compound?
Its Activity is 19 MT/ha.

And the Activity [33]?
The Activity was 3.63 MT/ha.

What about the Activity [34] of the same compound?
The Activity was 8.2 MT/ha.

What about the Activity [35] of the same compound?
Its Activity is 19 MT/ha.

What does the source list for `CSc1nnc(C(C)(C)C)c(=O)n1N` [METRIBUZIN]?
Activity [36]: 17.1 MT/ha; Activity [37]: 3.32 MT/ha; Activity [38]: 17.1 MT/ha; Activity [39]: 17.1 MT/ha; Activity [40]: 7.64 MT/ha; Activity [41]: 3.32 MT/ha; Activity [42]: 3.32 MT/ha
